Source: patent US9238069B2, “Method of sensitizing cancer cells to the cytotoxic effects of death receptor ligands in cancer treatment” (The United States of America, as represented by the …, priority 2009, dated 2016)

Assays:
ACHN renal cancer cells = assay: SRB dose-response assay for synergy with TRAIL (percent growth inhibition); format: cell-based; conditions: 4 h presensitization, TRAIL 20 ng/mL, FIG. 11
Excerpt: FIG. 11 depicts the dose-response curves for withanolide E and withanolide S in the presence of TRAIL. The y-axis represents percent growth inhibition for ACHN renal cancer cells. The lines labeled “−TRAIL” are the dose-response curves for withanolide E and withanolide S in the absence of TRAIL. The lines labeled “predicted +TRAIL” is the predicted additive percent growth inhibition resulting from addition of the growth inhibition due to withanolide E and withanolide S plus TRAIL. The lines labeled “Actual +TRAIL” is the actual percent growth inhibition determined by the assay.
This Example illustrates another aspect of the assay. […] Controls were combined on each assay plate and included: SRB background absorbance (no cells), untreated (DMSO-only) cells, TRAIL-only cells, cytotoxicity positive control −TRAIL (sanguinarine hydrochloride; one concentration), and synergy positive control +TRAIL (bortezomib; one conconcentrion plus a dose-response range).
Compound dilutions were prepared in clear test medium and added to cells. […] Dye was resolubilized by addition of 10 mM TRIZMA base solution (30 μL) and resuspended on a rotary shaker for a few minutes before reading the plates for absorbance at 520 nm using a Safire plate reader (Tecan Group Ltd., Männedorf, Switzerland). […]

caspase-8 in ACHN cells = assay: Western blot of caspase-8 cleavage after sensitizer plus TRAIL; format: cell-based; conditions: compound 10 μM, sensitized 4 h, then TRAIL 40 ng/mL, FIG. 5
Method: This Example illustrates cleavage of caspase resulting from treatment of cells with anolides in combination with TRAIL. ACHN cells were seeded into 6-well tissue culture plates at […] cells/well in clear test medium and the next day compound was added to a final concentration of 10 μM. Cells were sensitized for 4 h followed by addition of TRAIL to 40 ng/mL final concentration. Cells were harvested in lysis buffer at short intervals after addition of the TRAIL reagent using 165 μL per well. Lysis buffer contained: 50 mM Tris-Cl (pH 8.0), 300 mM NaCl, 5 mM EDTA, 0.5% Triton X-100, 40 μM Z-VAD-FMK, plus one mini-complete protease inhibitor tablet (Roche, Mannheim, Germany) or 100 μL Halt Protease Inhibitor Single-Use Cocktail (Pierce Biotechnology, Inc., Rockford, Ill.) per 6 mL buffer. Lysates were clarified by centrifugation at 4° C. for 15 min at 15,000 rpm and protein content normalized using the bicinchonic acid (BCA) assay (Pierce Biotechnology, Inc.).
Lysates were run under reducing conditions at 20 μg total protein per lane, in NuPAGE 4-12% Bis-Tris gels (1.0 mm×12 well; Invitrogen), using MESS DS running buffer and added antioxidant in the upper chamber. […]
The Western blots determined using the above protocol for withanolide E is depicted in FIG. 5.

Row | Substance | percent growth inhibition in combination with TRAIL versus sensitizer alone or TRAIL alone (synergistic response) (ACHN renal cancer cells) | cleavage of caspase-8 (caspase-8 in ACHN cells)
1 | withanolide E | substantially greater | resulted in the cleavage of caspase-8
2 | withanolide S | substantially greater | –
